Experiments:
male ddy strain mice = experiment: Test for acute toxicity (minimum lethal dose, oral); type: in vivo; settings: mortality observed seven days after administration
Method: Groups of 3 male ddy strain mice weighing 20±1 g were used. The test compounds were orally administered. Seven days after administration, the mortality was observed and the minimum lethal dose (MLD) was determined.

[1] = system: acyl coenzyme A: cholesterol acyltransferase (ACAT); experiment: Test for ACAT inhibitory activity (microsome fraction prepared from rabbit liver); type: biochemical; settings: 10^-6 M, 37° C., 10 minutes
Method: Test for ACAT inhibitory activity The test for ACAT inhibitory activity was performed by a modified method of the method of Brecher et al. Biochim. Biophys. […] The radioactivity of the cholesterol ester spot was determined by a liquid scintillation counter. The radio-activity for each test compound was calculated by the difference between the radioactivity with the microsome fraction and the radioactivity without the microsome fraction. The radioactivity of control was determined in a similar manner without any test compound.

serum cholesterol level = experiment: Inhibition effect on serum cholesterol level in hamster with dietary hyperlipemia; type: in vivo; settings: Golden hamster, 2% cholesterol feed for 3 days; 30 mg/kg orally once a day
Method: Inhibition effect on serum cholesterol level in hamster with dietary hyperlipemia
Golden hamster (SLC, male, age of 6 weeks) was made free access to feed containing 2% cholesterol for 3 days. Each test compound was suspended in olive oil and orally administered once a day in a dose of 30 mg/kg during the feeding. (A: Test Group administered with the test compound, B: Control Group administered with olive oil only). In Group C, feed free from cholesterol was fed for 3 days. On the fourth day, blood sample was collected from the descending aorta under pentobarbital anesthesia and cholesterol level in serum was determined. The total cholesterol level in serum of each group was determined and the inhibition rate for the test compound was calculated according to the following equation. [formula]

SMILES | Acute Toxicity (MLD), minimum lethal dose (male ddy strain mice) [mg/kg] | Inhibiting rate(%) of ACAT [1] [%] | Inhibition Rate (%) of total cholesterol level in serum (serum cholesterol level) [%]
Cc1ccc2c(c1)C(C(=O)Nc1c(C(C)C)cccc1C(C)C)c1ccccc1CO2 (stereo not drawn) [Compound 4, 6,11-Dihydro-N-(2,6-diisopropylphenyl)-2-methyldibenz[b,e]-oxepin-11-carboxamide] | > 300 | 98 | 70
CC(C)c1cccc(C(C)C)c1NC(=O)C1c2ccccc2COc2ccc(Br)cc21 (stereo not drawn) [Compound 18, 2-Bromo-6,11-dihydro-N-(2,6-diisopropylphenyl)dibenz[b,e]-oxepin-11-carboxamide] | > 300 | 100 | 114
CC(C)c1cccc(C(C)C)c1NC(=O)C1c2ccccc2COc2ccc(C(F)(F)F)cc21 (stereo not drawn) [Compound 20, 6,11-Dihydro-N-(2,6-diisopropylphenyl) -2-trifluoromethyldibenz[b,e]oxepin-11-carboxamide] | > 300 | 84 | 63
Cc1cc(Br)c2c(c1)C(C(=O)Nc1c(C(C)C)cccc1C(C)C)c1ccccc1CO2 (stereo not drawn) [Compound 21, 4-Bromo-6,11-dihydro-N-(2,6-diisopropylphenyl) -2-methyldibenz[b,e]oxepin-11-carboxamide] | – | – | 67
COC(=O)c1ccc2c(c1)C(C(=O)Nc1c(C(C)C)cccc1C(C)C)c1ccccc1CO2 (stereo not drawn) [Compound 24, 6,11-Dihydro-N-(2,6-diisopropylphenyl)-2-methoxycarbonyl-dibenz[b,e]oxepin-11-carboxamide] | > 300 | 90 | –
CCc1cccc(CC)c1NC(=O)C1c2ccccc2COc2ccc(Br)cc21 (stereo not drawn) [Compound 27, 2-Bromo-N-(2,6-diethylphenyl)-6,11-dihydrodibenz[b,e]oxepin-11-carboxamide] | > 300 | 80 | –
O=C(Nc1c(Cl)cccc1Cl)C1c2ccccc2COc2cc(Br)ccc21 (stereo not drawn) [Compound 28, 3-Bromo-N-(2,6-dichlorophenyl)-6,11-dihydrodibenz[b,e]oxepin-11-carboxamide] | > 300 | 52 | –
CC(C)c1cccc(C(C)C)c1NC(=O)C1c2ccccc2COc2cc(Br)ccc21 (stereo not drawn) [Compound 29, 3-Bromo-6,11-dihydro-N-(2,6-diisopropylphenyl)dibenz[b,e]-oxepin-11-carboxamide] | > 300 | 86 | –
CC(C)c1cccc(C(C)C)c1NC(=O)C1c2ccccc2CSc2ccc(Br)cc21 (stereo not drawn) [Compound 32, 2-Bromo-6,11-dihydro-N-(2,6-diisopropylphenyl)dibenzo[b,e]-thiepin-11-carboxamide] | > 300 | 88 | 67
